Read-outs that look alike come from different tables or passages of the source. Marks after values point to notes of the source that are not given here.
How the values were obtained:
[1] = test system: anchorage-independent colony formation; experiment: Soft agarose colony formation (SACF), 3-D growth; type: cell-based; conditions: for inhibition in 3-D growth (SACF) as compared to phenytoin: same concentration as 2-D
[2] = test system: PC-3 cells; experiment: 3H-thymidine uptake (DNA synthesis) in PC-3 cells; type: cell-based, human; conditions: for inhibition at 1 µM / inhibition at 10 µM / inhibition at 20 µM / inhibition at 40 µM / inhibition at 100 µM: Homo sapiens, read-out: % Inhibition of PC3 Cells; for inhibition at 1 µM: PC-3, 1 μM; for inhibition at 10 µM: PC-3, 10 μM; for inhibition at 20 µM: PC-3, 20 μM; for inhibition at 40 µM: PC-3, 40 μM; for inhibition at 100 µM: PC-3, 100 μM; for effect on DNA synthesis (in words): dosages tested 1-100 μM
Description: The novel sodium channel blockers were assayed for activity against paired sets of cell lines with increasing metastatic potential, PC-3 and PC-3M (already androgen independent, AI), or increasing metastatic potential with increasing androgen independence, LNCaP and C4-2. DU145 was also included to provide another AI cell line with intermediate tumorigenicity between the LNCaP series and the PC-3 derivatives. This strategy allows an examination of at least three different genotypes for comparison of drug efficacy. […] The first assay used to screen these compounds was 3H-thymidine uptake in PC-3 cells. The cells were trypsinized, equal cell numbers were placed into each well and allowed to recover overnight.

[3] = test system: PSA secretion by PCa C4-2 cells; experiment: PSA secretion by PCa C4-2 cells; type: cell-based, human; conditions: for decrease of PSA secretion on a per cell basis: 40 μM
Description: PSA levels are clinically important in following tumor progression and burden. Sodium channel blockers 1, 2 and 44 (at 40 μM) and phenyloin at (100 μM) were investigated for their ability to suppress PSA secretion by PCa C4-2 cells.

[4] = target: Nav1.5 (Homo sapiens, UniProt Q14524); experiment: Electrophysiology, sodium currents in CHO cells stably expressing Nav1.5
[5] = target: sodium channel (BTX site 2); experiment: 3H-BTX-B binding inhibition; conditions: for IC50: 3H-BTX-B Inhibition Data
Excerpt: One assay used to screen compounds for modulators of sodium channel activity, is based on the use of the radioligand 3-[H]-BTX-B assay. BTX binds to site 2 on the channel protein and thus compounds that can compete with or inhibit BTX binding to the sodium channel are potential sodium channel inhibitors. This assay represents a facile tool to prescreen sodium channel binding before evaluating compounds in more rigorous functional assays such as through electrophysiology.

[6] = test system: C4-2 cells; experiment: Long-term growth assay (crystal violet), C4-2; type: cell-based, human; conditions: for growth of C4-2 cells (in words): 40 μM, 7 days with drug; for IC50: Homo sapiens, C4-2, 120 h, day 5, read-out: Day Five Effects on Cell line IC50 (μM) ± S.E.M., C4-2
Description: (§1) C4-2 cells were plated at cell densities established previously to reach saturation at day 7. The cells were allowed to recover overnight before a media change with the analogues (all at 40 μM) was performed. The assays were terminated at day 1, 3, 5 and 7. Media changes were performed on day 0, 2, 4 and 6 with fresh analogues added each time. The cells were then fixed with glutaraldehyde and stained with crystal violet. The dye is then eluted in Sorenson's solution and the absorbance read at 540 nm. […] These assays were repeated for DU145, PC-3 and the paired metastatic cell line PC-3M. The data were normalized to the day 7 DMSO control for each cell line to allow for direct cell:cell comparison.

[7] = test system: MAT-LyLu cells; conditions: 6 µM; cited from earlier work
[8] = test system: PC-3 cells; conditions: cited from earlier work
[9] = test system: LNCaP; experiment: Long-term growth assay (crystal violet), LNCaP; type: cell-based; conditions: Homo sapiens, 120 h, day 5, read-out: Day Five Effects on Cell line IC50 (μM) ± S.E.M., LNCaP
[10] = test system: PC-3M; experiment: Long-term growth assay (crystal violet), PC-3M; type: cell-based; conditions: Homo sapiens, 120 h, day 5, read-out: Day Five Effects on Cell line IC50 (μM) ± S.E.M., PC-3M
Description: as §1

[11] = test system: PC3; experiment: Long-term growth assay (crystal violet), PC3; type: cell-based; conditions: Homo sapiens, PC-3, 120 h; day 5; read-out: Day Five Effects on Cell line IC50 (μM) ± S.E.M., PC3
Description: as §1

[12] = test system: DU-145; experiment: Long-term growth assay (crystal violet), DU-145; type: cell-based; conditions: Homo sapiens, DU-145, 120 h; day 5; read-out: Day Five Effects on Cell line IC50 (μM) ± S.E.M., DU-145
Description: as §1

[13] = test system: cell growth in 2-D; experiment: 2-D growth assay; type: cell-based; conditions: molar equivalence to the phenytoin IC50
[14] = test system: all PCa cell lines tested (C4-2, DU145, PC-3, PC-3M); experiment: Long-term growth assay, panel of PCa cell lines; type: cell-based, human
Description: as §1

[15] = test system: mice

Chain of Nav1.5 (Q14524 whole entry): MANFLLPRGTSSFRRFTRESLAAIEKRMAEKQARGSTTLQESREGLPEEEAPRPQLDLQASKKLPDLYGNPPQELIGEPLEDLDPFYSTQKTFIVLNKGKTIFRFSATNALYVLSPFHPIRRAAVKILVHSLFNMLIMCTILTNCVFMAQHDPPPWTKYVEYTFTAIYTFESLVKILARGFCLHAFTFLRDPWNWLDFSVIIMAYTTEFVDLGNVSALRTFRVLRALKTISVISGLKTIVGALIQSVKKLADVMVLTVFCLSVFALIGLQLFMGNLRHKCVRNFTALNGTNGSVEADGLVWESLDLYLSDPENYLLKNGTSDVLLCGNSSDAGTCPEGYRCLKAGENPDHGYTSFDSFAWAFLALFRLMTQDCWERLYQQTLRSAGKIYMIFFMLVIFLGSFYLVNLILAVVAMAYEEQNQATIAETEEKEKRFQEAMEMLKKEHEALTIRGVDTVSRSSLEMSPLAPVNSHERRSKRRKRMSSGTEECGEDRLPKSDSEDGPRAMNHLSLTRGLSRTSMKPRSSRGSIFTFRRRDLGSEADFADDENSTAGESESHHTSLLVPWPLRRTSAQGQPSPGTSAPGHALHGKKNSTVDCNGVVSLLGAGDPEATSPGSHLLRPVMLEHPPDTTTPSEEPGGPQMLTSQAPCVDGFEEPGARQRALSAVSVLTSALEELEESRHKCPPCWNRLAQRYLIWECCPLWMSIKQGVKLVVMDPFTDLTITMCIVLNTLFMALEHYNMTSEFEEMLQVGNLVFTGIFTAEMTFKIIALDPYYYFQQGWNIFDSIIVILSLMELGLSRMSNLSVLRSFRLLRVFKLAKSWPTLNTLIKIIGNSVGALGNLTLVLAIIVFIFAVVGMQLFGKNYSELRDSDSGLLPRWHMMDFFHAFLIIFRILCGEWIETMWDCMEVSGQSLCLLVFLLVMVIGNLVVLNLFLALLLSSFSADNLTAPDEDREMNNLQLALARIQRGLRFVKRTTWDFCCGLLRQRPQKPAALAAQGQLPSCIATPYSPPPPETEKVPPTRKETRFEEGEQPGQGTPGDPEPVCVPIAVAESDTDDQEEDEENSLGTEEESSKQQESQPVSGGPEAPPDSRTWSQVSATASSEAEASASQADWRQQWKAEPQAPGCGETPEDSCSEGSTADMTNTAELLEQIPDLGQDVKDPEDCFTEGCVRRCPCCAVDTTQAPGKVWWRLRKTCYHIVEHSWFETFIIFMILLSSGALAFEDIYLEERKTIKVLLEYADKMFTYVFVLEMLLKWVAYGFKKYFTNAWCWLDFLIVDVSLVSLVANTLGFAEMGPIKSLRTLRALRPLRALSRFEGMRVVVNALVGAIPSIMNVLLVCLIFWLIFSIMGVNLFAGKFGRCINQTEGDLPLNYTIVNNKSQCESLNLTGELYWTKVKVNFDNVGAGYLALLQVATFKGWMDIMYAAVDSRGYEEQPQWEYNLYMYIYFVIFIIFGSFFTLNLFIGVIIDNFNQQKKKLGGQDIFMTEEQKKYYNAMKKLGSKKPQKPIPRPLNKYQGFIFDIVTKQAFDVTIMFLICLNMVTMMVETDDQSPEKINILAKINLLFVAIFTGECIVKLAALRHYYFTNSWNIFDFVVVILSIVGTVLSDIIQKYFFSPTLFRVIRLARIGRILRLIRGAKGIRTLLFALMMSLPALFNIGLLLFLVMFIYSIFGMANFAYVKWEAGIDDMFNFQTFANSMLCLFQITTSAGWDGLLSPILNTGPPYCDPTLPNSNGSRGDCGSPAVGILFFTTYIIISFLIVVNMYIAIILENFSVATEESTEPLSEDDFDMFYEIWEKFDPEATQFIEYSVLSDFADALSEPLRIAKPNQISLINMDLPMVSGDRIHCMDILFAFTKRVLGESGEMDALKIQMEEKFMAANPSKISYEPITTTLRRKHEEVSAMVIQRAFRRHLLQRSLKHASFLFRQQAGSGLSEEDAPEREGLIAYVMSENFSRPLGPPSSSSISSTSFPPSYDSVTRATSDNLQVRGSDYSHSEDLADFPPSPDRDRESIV

Q: Which results are given for `O=C1NC(=O)C(c2ccccc2)(c2ccccc2)N1` [phenytoin, reference compound]?
A: inhibition of SACF compared to the DMSO/EtOH control plates [1]: 25.7%; inhibition at 1 µM [2]: -23.8%; inhibition at 10 µM [2]: -13.9%; inhibition at 20 µM [2]: -21.8%; inhibition at 40 µM [2]: -12.5%; inhibition at 100 µM [2]: 30.8%; effect on DNA synthesis (in words) [2]: stimulatory; inhibition at 100 µM ([3]; Homo sapiens, C4-2, 100 μM): 17.8%; EC50 [4]: > 200 µM; IC50 [5]: 40 µM

Q: With `CCN(CC)CC(=O)Nc1c(C)cccc1C` [lidocaine, reference compound] as the compound, how does the “growth of C4-2 cells (in words)” value [6] read?
A: The value was “mildly stimulatory”.

Q: Which “inhibition of invasiveness of MAT-LyLu cells in vitro” value [7] does the source give for `NC1=N[C@H](O)[C@H]2[C@H]3O[C@]4(O)O[C@@H]([C@@H](O)[C@@]2(N1)[C@@H]4O)[C@]3(O)CO` [TTX, Tetrodotoxin] here?
A: Its value is “up to 50%”.

Q: What about the “reduction of invasiveness of PC-3 cells” value [8] of the same compound?
A: The value was 31%.

Q: With `CCCCCCCC(O)(C(N)=O)c1cccc(Cl)c1` (stereo not shown) [Compound 1] as the compound, how does the IC50 [9] read?
A: The IC50 was 72.2 ± 0.1 µM.

Q: What about the “inhibition in 3-D growth (SACF) as compared to phenytoin” value [1] of the same compound?
A: The value was “approximately 87.2%”.

Q: And the IC50 [10]?
A: The IC50 was 61.9 ± 0.1 µM.

Q: And the IC50 [11]?
A: Its IC50 is 66 ± 0.7 µM.

Q: And the “growth of C4-2 cells (in words)” value [6]?
A: Its value is “remarkable inhibition of growth”.

Q: And the IC50 [6]?
A: The IC50 was 51.3 ± 0.2 µM.

Q: And the IC50 [12]?
A: Its IC50 is 56 ± 0.7 µM.

Q: And the “inhibition in 2-D growth assays” value [13]?
A: The value was 66.3%.

Q: And the “cells' growth, % of controls (maximum inhibition)” value ([14]; normalized to day 7 DMSO control)?
A: Its value is 20-25 % of controls.

Q: And the “Number of mice with impaired balance on the rotating rod/total # of animals tested” value ([15]; 30 mg/kg i.p., 0.5 hours)?
A: Its value is 0/4.

Q: And the “Number of mice with impaired balance on the rotating rod/total # of animals tested” value ([15]; 30 mg/kg i.p., 4.0 hours)?
A: The value was 0/2.

Q: What about the “Number of mice with impaired balance on the rotating rod/total # of animals tested” value ([15]; 100 mg/kg i.p., 0.25 hours) of the same compound?
A: Its value is 0/4^a.

Q: And the “Number of mice with impaired balance on the rotating rod/total # of animals tested” value ([15]; 100 mg/kg i.p., 0.5 hours)?
A: Its value is 1/8.

Q: And the “Number of mice with impaired balance on the rotating rod/total # of animals tested” value ([15]; 100 mg/kg i.p., 1.0 hours)?
A: The value was 1/8.

Q: What about the “Number of mice with impaired balance on the rotating rod/total # of animals tested” value ([15]; 300 mg/kg i.p., 0.5 hours) of the same compound?
A: The value was 3/4.

Q: What about the “Number of mice with impaired balance on the rotating rod/total # of animals tested” value ([15]; 300 mg/kg i.p., 4.0 hours) of the same compound?
A: The value was 0/2.

Q: And the tolerated dose ([15]; mice, i.p., acute)?
A: Its tolerated dose is “up to 300 mg/kg”.

Q: And the “decrease of PSA secretion on a per cell basis” value (shortened to “decrease … per cell basis”) [3]?
A: Its value is 42.5%.

Q: What about the IC50 ([3]; Homo sapiens, C4-2, dose-response curve, read-out: IC50 for reducing PSA) of the same compound?
A: The IC50 was about 10 µM.

Q: For `CCCCCCCC(O)(C(N)=O)c1ccc(Cl)cc1` (stereo not shown) [Compound 2], which IC50 [9] is on record?
A: Its IC50 is 64.1 ± 4.3 µM.

Q: What about the “enhanced inhibition using SACF, % of phenytoin” value [1] of the same compound?
A: Its value is 41.5 % of phenyloin.

Q: And the “inhibition in 3-D growth (SACF) as compared to phenytoin” value [1]?
A: Its value is about 62%.

Q: And the IC50 [10]?
A: The IC50 was 50 µM.

Q: What about the IC50 [11] of the same compound?
A: Its IC50 is 66.8 ± 1.2 µM.

Q: What about the IC50 [6] of the same compound?
A: The IC50 was 61.1 ± 0.1 µM.

Q: And the IC50 [12]?
A: Its IC50 is 67.2 ± 0.1 µM.

Q: What about the “inhibition in 2-D growth assays” value [13] of the same compound?
A: The value was 42.3%.

Q: What about the inhibition at 1 µM [2] of the same compound?
A: Its inhibition at 1 µM is -3.61%.

Q: And the inhibition at 10 µM [2]?
A: Its inhibition at 10 µM is 25.2%.

Q: And the inhibition at 20 µM [2]?
A: The inhibition at 20 µM was 44.6%.

Q: And the inhibition at 40 µM [2]?
A: The inhibition at 40 µM was 48.9%.

Q: And the inhibition at 100 µM [2]?
A: The inhibition at 100 µM was 96.2%.

Q: And the “effect on DNA synthesis (in words)” value [2]?
A: Its value is “inhibited DNA synthesis better than phenyloin at all dosages tested”.

Q: And the “decrease … per cell basis” value [3]?
A: The value was 41.8%.

Q: And the EC50 [4]?
A: Its EC50 is 12.7 ± 2.7 µM.

Q: And the “inhibition of 3H-BTX-B binding in comparison to phenytoin” value [5]?
A: Its value is “effective inhibition”.

Q: For `CCCCCCCC1(c2ccccc2)NC(=O)NC1=O` (stereo not shown) [Compound 44], which IC50 [9] is on record?
A: Its IC50 is 71.8 ± 1.8 µM.

Q: And the IC50 [10]?
A: The IC50 was 58.4 µM.

Q: And the IC50 [11]?
A: The IC50 was 66 ± 0.1 µM.

Q: What about the IC50 [6] of the same compound?
A: Its IC50 is 67.4 ± 1.3 µM.

Q: What about the IC50 [12] of the same compound?
A: The IC50 was 35.6 ± 2.6 µM.

Q: And the “% Inhibition of PC3 Cells” value ([2]; 40 μM)?
A: The value was 55.09%.

Q: What about the inhibition at 1 µM [2] of the same compound?
A: Its inhibition at 1 µM is 12.8%.

Q: What about the inhibition at 10 µM [2] of the same compound?
A: The inhibition at 10 µM was 26.6%.

Q: And the inhibition at 20 µM [2]?
A: Its inhibition at 20 µM is 32.7%.

Q: And the inhibition at 40 µM [2]?
A: Its inhibition at 40 µM is 55%.

Q: And the inhibition at 100 µM [2]?
A: The inhibition at 100 µM was 82%.

Q: What about the “effect on DNA synthesis (in words)” value [2] of the same compound?
A: Its value is “inhibited DNA synthesis better than phenyloin at all dosages tested”.

Q: What about the “selectivity of growth inhibition (in words)” value ([14]; long-term growth assay) of the same compound?
A: The value was “cell selective inhibition of growth”.

Q: And the “decrease … per cell basis” value [3]?
A: The value was 14.9%.

Q: What about the EC50 [4] of the same compound?
A: The EC50 was 29.8 ± 4.2 µM.

Q: And the “inhibition of 3H-BTX-B binding in comparison to phenytoin” value [5]?
A: Its value is “effective inhibition”.

Q: What about the IC50 [5] of the same compound?
A: The IC50 was 5 ± 1 µM.

Q: For `CCCCCCCC(O)(C(N)=O)c1ccc(F)cc1` (stereo not shown) [Compound 9], which EC50 [4] is on record?
A: The EC50 was 34.2 ± 7.4 µM.

Source: patent publication US8350076B2, “Sodium channel blockers” (University of Virginia Patent Foundation, priority 2002, dated 2013)
